Data as given in PMC7591571, “Identification of a juvenile-hormone signaling inhibitor via high-throughput screening of a chemical library” (Scientific Reports, 2020).

What was measured:
[1] = test system: T1, JH receptor, methoprene-tolerant protein (Met) / SRC, endogenous in BmN_JF&AR cells; experiment: kJHRE luciferase reporter assay in stable BmN_JF&AR cells; type: cell-based; conditions: agonist, 25 °C, 20 h, pathway read-out
T1 construct: gene Met1; endogenous receptor of BmN cells; receptor not overexpressed; Met paralogue not specified

[2] = test system: T1, JH receptor, methoprene-tolerant protein (Met) / SRC, endogenous in BmN_JF&AR cells; experiment: as above; type: cell-based; conditions: inhibition of 1 nM JH I response; 25 °C; 20 h; competitive antagonist-like; pathway read-out, direct binding to receptor not demonstrated; read-out: EC50 (the source's name)

SMILES	EC50 [1] [nM]	IC50 [2] [nM]
CC/C(=C\CC/C(C)=C/C(=O)OC)CC[C@H]1O[C@@]1(C)CC [JH I]	0.37	
CC(C)(C)c1ccc(OCCn2cncn2)c(Cl)c1 [JHSI48, N-[2-(4-tert-butyl-2-chlorophenoxy)ethyl]-1H-1,2,4-triazole]		320
